From patent publication US20150238494A1, “HIGHLY SOLUBLE PURINE BIOACTIVE COMPOUNDS AND COMPOSITIONS THEREOF” (JHO Intellectual Property Holdings, LLC, priority 2014, published 2015)

Tests used:
[1] = Stability of theacrine solutions 0.1%, 0.2%, 0.4% in USP type I glass vials, 3 months at 40° C.; type: physicochemical; conditions: Storage 40 C., in % (unit assumed)
[2] = Stability of theacrine solution 1.3 mg/ml in USP Type I glass vials, 15 weeks at RT and 40° C.; type: physicochemical; conditions: 1.3 mg/ml solution, in % (unit assumed)
Description: The Table 1 below is data indicating assay results for stability of a theacrine solution prepared at 1.3 mg/ml and stored in USP Type I Glass vials for 15 weeks at RT and 40° C.

## Cn1c(=O)c2c(n(C)c1=O)n(C)c(=O)n2C [Theacrine, 1,3,7,9-Tetramethyluric acid]
[1]; 0.1% Solution, 1-M
  Assay value: 101
[1]; 0.1% Solution, 2-M
  Assay value: 100.4
[1]; 0.1% Solution, 3-M
  Assay value: 100.7
[1]; 0.1% Solution, 10-d
  Assay value: 100.4
[1]; 0.1% Solution, Initial
  Assay value: 100.6
[1]; 0.2% Solution, 1-M
  Assay value: 98.9
[1]; 0.2% Solution, 2-M
  Assay value: 97.5
[1]; 0.2% Solution, 3-M
  Assay value: 99.4
[1]; 0.2% Solution, 10-d
  Assay value: 98.6
[1]; 0.2% Solution, Initial
  Assay value: 99.8
[1]; 0.4% Solution, 1-M
  Assay value: 94.9
[1]; 0.4% Solution, 2-M
  Assay value: 95.3
[1]; 0.4% Solution, 3-M
  Assay value: 95.8
[1]; 0.4% Solution, 10-d
  Assay value: 92.3
[1]; 0.4% Solution, Initial
  Assay value: 94.1
[2]; Room Temperature (RT), 1-wk
  Assay: 98.7
[2]; Room Temperature (RT), 2-wk
  Assay: 100.1
[2]; Room Temperature (RT), 4-wk
  Assay: 99.2
[2]; Room Temperature (RT), 8-wk
  Assay: 99.9
[2]; Room Temperature (RT), 15-wk
  Assay: 99.3
[2]; Room Temperature (RT), Initial
  Assay: 99.6
[2]; Storage 40 C., 1-wk
  Assay: 98.2
[2]; Storage 40 C., 2-wk
  Assay: 98.9
[2]; Storage 40 C., 4-wk
  Assay: 98.7
[2]; Storage 40 C., 8-wk
  Assay: 98.6
[2]; Storage 40 C., 15-wk
  Assay: 98.0
[2]; Storage 40 C., Initial
  Assay: 99.6
